Experimental data from patent US20100298141A1, “SUBSTITUTED PYRIDINE N-OXIDE HERBICIDES” (E. I. DU PONT DE NEMOURS AND COMPANY, priority 2007, published 2010).

How the values were obtained:
quackgrass = assay: Test F preemergence test; assay type: in vivo, Elytrigia repens; conditions: scale 0 to 100
How it was run: (§1)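 Test chemicals were formulated in a non-phytotoxic solvent mixture with surfactant and applied preemergence to planted seeds or postemergence to sugarcane plants. Plants were kept in a greenhouse for 14 to 21 days, then visually evaluated against controls.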

Virginia dayflower = assay: Test F preemergence test; assay type: in vivo, Commelina virginica; conditions: scale 0 to 100
How it was run: as §1

common mallow = assay: Test F preemergence test; assay type: in vivo, Malva sylvestris; conditions: scale 0 to 100
How it was run: as §1

broadleaf signalgrass = assay: Test F preemergence test; assay type: in vivo, Brachiaria platyphylla; conditions: scale 0 to 100
How it was run: as §1

dallisgrass = assay: Test F preemergence test; assay type: in vivo, Paspalum dilatatum; conditions: scale 0 to 100
How it was run: as §1

green foxtail = assay: Test C pre-/postemergence test; assay type: in vivo, Setaria viridis; conditions: for Plant response rating, Foxtail, Green: scale 0 to 100, 0 no effect, 100 complete control
How it was run: (§2)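 Seeds were planted and treated preemergence with test chemical in a non-phytotoxic solvent mixture containing surfactant. Postemergence applications of the same formulation went onto plants 2 to 18 cm tall (1- to 4-leaf stage). A dash marks no test result.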

prickly sida = assay: Test F preemergence test; assay type: in vivo, Sida spinosa; conditions: scale 0 to 100
How it was run: as §1

blackgrass = assay: Test C pre-/postemergence test; assay type: in vivo, Alopecurus myosuroides; conditions: for Plant response rating, Blackgrass: scale 0 to 100, 0 no effect, 100 complete control
How it was run: as §2

kochia = assay: Test F preemergence test; assay type: in vivo, Kochia scoparia; conditions: scale 0 to 100
How it was run: as §1

Surinam grass = assay: Test F preemergence test; assay type: in vivo, Brachiaria decumbens; conditions: scale 0 to 100
How it was run: as §1

corn = assay: Test A pre-/postemergence greenhouse test; assay type: in vivo, Zea mays; conditions: for Corn plant response rating: 0 to 100 scale
How it was run: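 Two application timings were run side by side in the greenhouse. Before emergence, compound went onto the soil surface of loam–sand pots as a directed spray; after emergence, plants at 2–10 cm and the one- to two-leaf stage were treated. Visual injury versus controls was rated at approximately day ten.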

common ragweed = assay: Test C pre-/postemergence test; assay type: in vivo, Ambrosia elation; conditions: for Plant response rating, Ragweed: scale 0 to 100, 0 no effect, 100 complete control
How it was run: as §2

bermudagrass = assay: Test F preemergence test; assay type: in vivo, Cynodon dactylon; conditions: scale 0 to 100
How it was run: as §1

mustard = assay: Test F preemergence test; assay type: in vivo, Brassica nigra; conditions: scale 0 to 100
How it was run: as §1

[1] = 31 g ai/ha, Preemergence, scale 0 to 100
[2] = 62 g ai/ha, preemergence, scale 0 (no effect) to 100 (complete control)
[3] = preemergence, 125 g ai/ha, scale 0 (no effect) to 100 (complete control)

Cc1cc[n+]([O-])c(S(=O)(=O)Cc2c(C(F)(F)F)nn(C)c2OC(F)F)c1 [Compound 2]
Plant response rating, Quackgrass (quackgrass; 8 g ai/ha, preemergence): 0 | Quackgrass plant response rating (quackgrass; 62 g ai/ha, Preemergence): 60 | Plant response rating, Quackgrass (quackgrass; Preemergence, 16 g ai/ha): 0 | Plant response rating, Quackgrass (quackgrass; Preemergence, 31 g ai/ha): 20 | Plant response rating, Dayflower (Virginia dayflower; 8 g ai/ha, preemergence): 0 | Dayflower plant response rating (Virginia dayflower; 62 g ai/ha, Preemergence): 100 | Plant response rating, Dayflower (Virginia dayflower; Preemergence, 16 g ai/ha): 0 | Plant response rating, Dayflower (Virginia dayflower; Preemergence, 31 g ai/ha): 100 | Plant response rating, Mallow (common mallow; 8 g ai/ha, preemergence): 0 | Mallow plant response rating (common mallow; 62 g ai/ha, Preemergence): 35 | Plant response rating, Mallow (common mallow; Preemergence, 16 g ai/ha): 0 | Plant response rating, Mallow (common mallow; Preemergence, 31 g ai/ha): 0 | Plant response rating, Signalgrass (broadleaf signalgrass; 8 g ai/ha, preemergence): 0 | Plant response rating, Signalgrass (broadleaf signalgrass; 16 g ai/ha, preemergence): 0 | Signalgrass plant response rating (broadleaf signalgrass; 62 g ai/ha, Preemergence): 50 | Plant response rating, Signalgrass (broadleaf signalgrass; Preemergence, 31 g ai/ha): 0 | Plant response rating, Dallisgrass (dallisgrass; 8 g ai/ha, preemergence): 0 | Dallisgrass plant response rating (dallisgrass; 62 g ai/ha, Preemergence): 65 | Plant response rating, Dallisgrass (dallisgrass; Preemergence, 16 g ai/ha): 0 | Plant response rating, Dallisgrass (dallisgrass; Preemergence, 31 g ai/ha): 10 | Foxtail, Green plant response rating (green foxtail; [1]): 100 | Foxtail, Green plant response rating (green foxtail; [2]): 100 | Plant response rating (0 to 100), Foxtail, Green (green foxtail; Postemergence, 31 g ai/ha): 0 | Plant response rating, Foxtail, Green (green foxtail; Postemergence, 62 g ai/ha): 0 | Plant response rating, Foxtail, Green (green foxtail; Postemergence, 125 g ai/ha): 20 | Plant response rating, Foxtail, Green (green foxtail; Postemergence, 250 g ai/ha): 50 | Plant response rating (0 to 100), Foxtail, Green (green foxtail; Preemergence, 250 g ai/ha): 100 | Foxtail, Green plant response rating (green foxtail; [3]): 100 | Plant response rating, Prickly Sida (prickly sida; 8 g ai/ha, preemergence): 0 | Prickly Sida plant response rating (prickly sida; 62 g ai/ha, Preemergence): 80 | Plant response rating, Prickly Sida (prickly sida; Preemergence, 16 g ai/ha): 0 | Plant response rating, Prickly Sida (prickly sida; Preemergence, 31 g ai/ha): 40 | Blackgrass plant response rating (blackgrass; [1]): 60 | Blackgrass plant response rating (blackgrass; [2]): 80 | Plant response rating (0 to 100), Blackgrass (blackgrass; Postemergence, 31 g ai/ha): 0 | Plant response rating, Blackgrass (blackgrass; Postemergence, 62 g ai/ha): 0 | Plant response rating, Blackgrass (blackgrass; Postemergence, 125 g ai/ha): 0 | Plant response rating, Blackgrass (blackgrass; Postemergence, 250 g ai/ha): 0 | Plant response rating (0 to 100), Blackgrass (blackgrass; Preemergence, 250 g ai/ha): 100 | Blackgrass plant response rating (blackgrass; [3]): 80 | Plant response rating, Kochia (kochia; 8 g ai/ha, preemergence): 0 | Kochia plant response rating (kochia; 62 g ai/ha, Preemergence): 75 | Plant response rating, Kochia (kochia; Preemergence, 16 g ai/ha): 0 | Plant response rating, Kochia (kochia; Preemergence, 31 g ai/ha): 0 | Plant response rating, Surinam Grass (Surinam grass; 8 g ai/ha, preemergence): 0 | Plant response rating, Surinam Grass (Surinam grass; 16 g ai/ha, preemergence): 0 | Surinam Grass plant response rating (Surinam grass; 62 g ai/ha, Preemergence): 100 | Plant response rating, Surinam Grass (Surinam grass; Preemergence, 31 g ai/ha): 60 | Corn plant response rating (corn; Postemergence, 125 g ai/ha, 0 is no effect, 100 is complete control): 60 | Corn plant response rating (corn; Postemergence, 500 g ai/ha, 0 is no effect, 100 is complete control): 60 | Corn plant response rating (corn; Preemergence, 125 g ai/ha, 0 no effect, 100 complete control): 0 | Plant response rating, Corn (corn; Preemergence, 500 g ai/ha, 0 to 100 scale where 0 is no effect and 100 is complete control): 40 | Ragweed plant response rating (common ragweed; [1]): 20 | Ragweed plant response rating (common ragweed; [2]): 98 | Plant response rating (0 to 100), Ragweed (common ragweed; Postemergence, 31 g ai/ha): 0 | Plant response rating (0 to 100), Ragweed (common ragweed; Postemergence, 62 g ai/ha): 0 | Plant response rating, Ragweed (common ragweed; Postemergence, 125 g ai/ha): 5 | Plant response rating, Ragweed (common ragweed; Postemergence, 250 g ai/ha): 10 | Plant response rating (0 to 100), Ragweed (common ragweed; Preemergence, 250 g ai/ha): 100 | Ragweed plant response rating (common ragweed; [3]): 100 | Plant response rating, Bermudagrass (bermudagrass; 8 g ai/ha, preemergence): 0 | Bermudagrass plant response rating (bermudagrass; 62 g ai/ha, Preemergence): 90 | Plant response rating, Bermudagrass (bermudagrass; Preemergence, 16 g ai/ha): 25 | Plant response rating, Bermudagrass (bermudagrass; Preemergence, 31 g ai/ha): 90 | Plant response rating, Black Mustard (mustard; 8 g ai/ha, preemergence): 0 | Black Mustard plant response rating (mustard; 62 g ai/ha, Preemergence): 80 | Plant response rating, Black Mustard (mustard; Preemergence, 16 g ai/ha): 25 | Plant response rating, Black Mustard (mustard; Preemergence, 31 g ai/ha): 80
